In patent US20260070945A1, “MACROCYCLIC IMMUNOMODULATORS” (Bristol-Myers Squibb Company, priority 2022, published 2026):
pIC50: −log10 of the molar value. Where a SMILES comes first, the peptide text is derived from it. Bridges are numbered along the chain shown (N, C = ends). [ ]: non-standard residue; d: D form. The star is where a group is joined. Phe(4-COOH) = N[C@@H](Cc1ccc(C(=O)O)cc1)C(=O)O; Bip = N[C@@H](Cc1ccc(-c2ccccc2)cc1)C(=O)O; hArg = N=C(N)NCCCC[C@H](N)C(=O)O; 4Pal = N[C@@H](Cc1ccncc1)C(=O)O; Cha = N[C@@H](CC1CCCCC1)C(=O)O; 12Ado = NCCCCCCCCCCCC(=O)O; Carboxymethyl = O=C(O)C*; NMeA = CN[C@@H](C)C(=O)O; Orn = NCCC[C@H](N)C(=O)O; Aun = NCCCCCCCCCCC(=O)O; Dab = NCC[C@H](N)C(=O)O; Dap = NC[C@H](N)C(=O)O; AEEA = NCCOCCOCC(=O)O

Molecular target: T1, PD-1/PD-L1 interaction (PE-labeled human PD-L1-Ig binding to Jurkat cell line over-expressing human PD-1) (Homo sapiens, UniProt Q15116)
T1 construct: expressed in transfected cells; host or cells: Jurkat
Test: Jurkat-PD-1 Cell Binding High-Content Screening Assay (CBA)
Settings: Jurkat-hPD-1 cells, PE-labeled PD-L1-Ig 20 nM final; read-out: Jurkat HPD1 PDL1 IC50
Procedure, shortened: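 Cells 8×10^3/well, DMEM + 10% FCS; cpd 2 h, 37 °C; PE–PD-L1-Ig 20 nM final, 1 h; PFA fix + Hoechst 33342, 3× dPBS wash; high-content imager.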

T1 sequence (Q15116 25-288): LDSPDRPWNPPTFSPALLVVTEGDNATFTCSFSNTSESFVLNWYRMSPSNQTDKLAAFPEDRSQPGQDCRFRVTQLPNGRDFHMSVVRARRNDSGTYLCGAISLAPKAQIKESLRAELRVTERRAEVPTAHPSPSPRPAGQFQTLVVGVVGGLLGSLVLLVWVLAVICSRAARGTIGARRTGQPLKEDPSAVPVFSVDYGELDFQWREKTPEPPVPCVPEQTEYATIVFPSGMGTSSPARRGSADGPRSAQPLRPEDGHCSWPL

Question: How did the pIC50 turn out when `CC(C)C[C@@H]1NC(=O)[C@H](Cc2c[nH]c3ccccc23)NC(=O)[C@H](CC(=O)O)NC(=O)[C@H](Cc2ccc(C(=O)O)cc2)NC(=O)[C@H](Cc2ccc(OCC(=O)O)cc2)NC(=O)CSC[C@@H](C(=O)N[C@@H](CCCN)C(=O)NCCOCCOCC(=O)NCCCCCCCCCCC(=O)O)NC(=O)[C@H](CCCCN)NC(=O)[C@H](C(C)C)NC(=O)[C@H](CC2CCCCC2)NC(=O)[C@H](CC(=O)O)NC(=O)[C@@H](CC(C)C)NC(=O)[C@H](C)N(C)C(=O)[C@H](C(C)C)NC(=O)[C@H](Cc2ccc(-c3ccccc3)cc2)NC1=O` [Example 2136] ({CH2CO}-Y(Carboxymethyl)[Phe(4-COOH)]DWL[Bip]V[NMeA][dL]D[Cha]VKC[Orn][AEEA][Aun]-OH; thioether N-14) was run?
Answer: 6.84

Question: With `CC(C)C[C@@H]1NC(=O)[C@H](Cc2c[nH]c3ccccc23)NC(=O)[C@H](CC(=O)O)NC(=O)[C@H](Cc2ccc(C(=O)O)cc2)NC(=O)[C@H](Cc2ccc(OCC(=O)O)cc2)NC(=O)CSC[C@@H](C(=O)N[C@@H](CCCN)C(=O)NCCOCCOCC(=O)NCCCCCCCCCCC(=O)O)NC(=O)[C@H](CCCCN)NC(=O)[C@H](C(C)C)NC(=O)[C@H](CC2CCCCC2)NC(=O)[C@H](CCC(=O)O)NC(=O)[C@@H](CC(C)C)NC(=O)[C@H](C)N(C)C(=O)[C@H](C(C)C)NC(=O)[C@H](Cc2ccc(-c3ccccc3)cc2)NC1=O` [Example 2137] ({CH2CO}-Y(Carboxymethyl)[Phe(4-COOH)]DWL[Bip]V[NMeA][dL]E[Cha]VKC[Orn][AEEA][Aun]-OH; thioether N-14) as the molecule, how does the pIC50 read?
Answer: 7.52

Question: With `CC(C)C[C@@H]1NC(=O)[C@H](Cc2c[nH]c3ccccc23)NC(=O)[C@H](CC(=O)O)NC(=O)[C@H](Cc2ccc(C(=O)O)cc2)NC(=O)[C@H](Cc2ccc(OCC(=O)O)cc2)NC(=O)CSC[C@@H](C(=O)N[C@@H](CCCN)C(=O)NCCOCCOCC(=O)NCCCCCCCCCCC(=O)O)NC(=O)[C@H](CO)NC(=O)[C@H](C(C)C)NC(=O)[C@H](CC2CCCCC2)NC(=O)[C@H](CCCN)NC(=O)[C@@H](CC(C)C)NC(=O)[C@H](C)N(C)C(=O)[C@H](C(C)C)NC(=O)[C@H](Cc2ccc(-c3ccccc3)cc2)NC1=O` [Example 2138] ({CH2CO}-Y(Carboxymethyl)[Phe(4-COOH)]DWL[Bip]V[NMeA][dL][Orn][Cha]VSC[Orn][AEEA][Aun]-OH; thioether N-14) as the molecule, how does the pIC50 read?
Answer: 7.85

Question: `CC(C)C[C@@H]1NC(=O)[C@H](Cc2c[nH]c3ccccc23)NC(=O)[C@H](CC(=O)O)NC(=O)[C@H](Cc2ccc(OCC(=O)O)cc2)NC(=O)[C@H](CCCNC(=N)N)NC(=O)CSC[C@@H](C(=O)N[C@@H](CCCN)C(=O)NCCOCCOCC(=O)NCCCCCCCCCCC(=O)O)NC(=O)[C@H](CO)NC(=O)[C@H](C(C)C)NC(=O)[C@H](CC2CCCCC2)NC(=O)[C@H](CCN)NC(=O)[C@@H](CC(C)C)NC(=O)[C@H](C)N(C)C(=O)[C@H](C(C)C)NC(=O)[C@H](Cc2ccc(-c3ccccc3)cc2)NC1=O` [Example 2139] ({CH2CO}-RY(Carboxymethyl)DWL[Bip]V[NMeA][dL][Dab][Cha]VSC[Orn][AEEA][Aun]-OH; thioether N-14) was tested. Which pIC50 did it give?
Answer: 7.96

Question: With `CC(C)C[C@@H]1NC(=O)[C@H](Cc2c[nH]c3ccccc23)NC(=O)[C@H](CC(=O)O)NC(=O)[C@H](CCCCNC(=N)N)NC(=O)[C@H](Cc2ccc(OCC(=O)O)cc2)NC(=O)CSC[C@@H](C(=O)N[C@@H](CCCN)C(=O)NCCOCCOCC(=O)NCCCCCCCCCCC(=O)O)NC(=O)[C@H](CO)NC(=O)[C@H](C(C)C)NC(=O)[C@H](CC2CCCCC2)NC(=O)[C@H](CCN)NC(=O)[C@@H](CC(C)C)NC(=O)[C@H](C)N(C)C(=O)[C@H](C(C)C)NC(=O)[C@H](Cc2ccc(-c3ccccc3)cc2)NC1=O` [Example 2140] ({CH2CO}-Y(Carboxymethyl)[hArg]DWL[Bip]V[NMeA][dL][Dab][Cha]VSC[Orn][AEEA][Aun]-OH; thioether N-14) as the molecule, how does the pIC50 read?
Answer: 7.80

Question: How did the pIC50 turn out when `CC(C)C[C@@H]1NC(=O)[C@H](Cc2c[nH]c3ccccc23)NC(=O)[C@H](CC(=O)O)NC(=O)[C@H](Cc2ccncc2)NC(=O)[C@H](Cc2ccc(OCC(=O)O)cc2)NC(=O)CSC[C@@H](C(=O)N[C@@H](CCCN)C(=O)NCCOCCOCC(=O)NCCCCCCCCCCCC(=O)O)NC(=O)[C@H](CO)NC(=O)[C@H](C(C)C)NC(=O)[C@H](CC2CCCCC2)NC(=O)[C@H](CCN)NC(=O)[C@@H](CC(C)C)NC(=O)[C@H](C)N(C)C(=O)[C@H](C(C)C)NC(=O)[C@H](Cc2ccc(-c3ccccc3)cc2)NC1=O` [Example 2141] ({CH2CO}-Y(Carboxymethyl)[4Pal]DWL[Bip]V[NMeA][dL][Dab][Cha]VSC[Orn][AEEA][12Ado]-OH; thioether N-14) was run?
Answer: 7.88

Question: `CC(C)C[C@@H]1NC(=O)[C@H](Cc2c[nH]c3ccccc23)NC(=O)[C@H](CC(=O)O)NC(=O)[C@H](Cc2ccc(OCC(=O)O)cc2)NC(=O)[C@H](Cc2ccncc2)NC(=O)CSC[C@@H](C(=O)N[C@@H](CCCN)C(=O)NCCOCCOCC(=O)NCCCCCCCCCCC(=O)O)NC(=O)[C@H](CO)NC(=O)[C@H](C(C)C)NC(=O)[C@H](CC2CCCCC2)NC(=O)[C@H](CCN)NC(=O)[C@@H](CC(C)C)NC(=O)[C@H](C)N(C)C(=O)[C@H](C(C)C)NC(=O)[C@H](Cc2ccc(-c3ccccc3)cc2)NC1=O` [Example 2142] ({CH2CO}-[4Pal]Y(Carboxymethyl)DWL[Bip]V[NMeA][dL][Dab][Cha]VSC[Orn][AEEA][Aun]-OH; thioether N-14) was tested. Which pIC50 did it give?
Answer: 7.94

Question: How did the pIC50 turn out when `CC(C)C[C@@H]1NC(=O)[C@H](Cc2c[nH]c3ccccc23)NC(=O)[C@H](CC(=O)O)NC(=O)[C@H](Cc2ccc(C(=O)O)cc2)NC(=O)[C@H](Cc2ccc(OCC(=O)O)cc2)NC(=O)CSC[C@@H](C(=O)N[C@@H](CCCN)C(=O)NCCOCCOCC(=O)NCCCCCCCCCCC(=O)O)NC(=O)[C@H](CN)NC(=O)[C@H](C(C)C)NC(=O)[C@H](CC2CCCCC2)NC(=O)[C@H](CC(N)=O)NC(=O)[C@@H](CC(C)C)NC(=O)[C@H](C)N(C)C(=O)[C@H](C(C)C)NC(=O)[C@H](Cc2ccc(-c3ccccc3)cc2)NC1=O` [Example 2143] ({CH2CO}-Y(Carboxymethyl)[Phe(4-COOH)]DWL[Bip]V[NMeA][dL]N[Cha]V[Dap]C[Orn][AEEA][Aun]-OH; thioether N-14) was run?
Answer: 7.21

Question: With `CC(C)C[C@@H]1NC(=O)[C@H](Cc2c[nH]c3ccccc23)NC(=O)[C@H](CC(=O)O)NC(=O)[C@H](Cc2ccc(C(=O)O)cc2)NC(=O)[C@H](Cc2ccc(OCC(=O)O)cc2)NC(=O)CSC[C@@H](C(=O)N[C@@H](CCCN)C(=O)NCCOCCOCC(=O)NCCCCCCCCCCC(=O)O)NC(=O)[C@H](CCCN)NC(=O)[C@H](C(C)C)NC(=O)[C@H](CC2CCCCC2)NC(=O)[C@H](CC(N)=O)NC(=O)[C@@H](CC(C)C)NC(=O)[C@H](C)N(C)C(=O)[C@H](C(C)C)NC(=O)[C@H](Cc2ccc(-c3ccccc3)cc2)NC1=O` [Example 2144] ({CH2CO}-Y(Carboxymethyl)[Phe(4-COOH)]DWL[Bip]V[NMeA][dL]N[Cha]V[Orn]C[Orn][AEEA][Aun]-OH; thioether N-14) as the molecule, how does the pIC50 read?
Answer: 7.71

Question: `CC(C)C[C@@H]1NC(=O)[C@H](Cc2c[nH]c3ccccc23)NC(=O)[C@H](CC(=O)O)NC(=O)[C@H](Cc2ccc(C(=O)O)cc2)NC(=O)[C@H](Cc2ccc(OCC(=O)O)cc2)NC(=O)CSC[C@@H](C(=O)N[C@@H](CCCN)C(=O)NCCOCCOCC(=O)NCCCCCCCCCCC(=O)O)NC(=O)[C@H](CCCCN)NC(=O)[C@H](C(C)C)NC(=O)[C@H](CC2CCCCC2)NC(=O)[C@H](CC(N)=O)NC(=O)[C@@H](CC(C)C)NC(=O)[C@H](C)N(C)C(=O)[C@H](C(C)C)NC(=O)[C@H](Cc2ccc(-c3ccccc3)cc2)NC1=O` [Example 2145] ({CH2CO}-Y(Carboxymethyl)[Phe(4-COOH)]DWL[Bip]V[NMeA][dL]N[Cha]VKC[Orn][AEEA][Aun]-OH; thioether N-14) was tested. Which pIC50 did it give?
Answer: 7.84

Question: How did the pIC50 turn out when `CC(C)C[C@@H]1NC(=O)[C@H](Cc2c[nH]c3ccccc23)NC(=O)[C@H](CC(=O)O)NC(=O)[C@H](Cc2c[nH]cn2)NC(=O)[C@H](Cc2ccc(OCC(=O)O)cc2)NC(=O)CSC[C@@H](C(=O)N[C@@H](CCCN)C(=O)NCCOCCOCC(=O)NCCCCCCCCCCC(=O)O)NC(=O)[C@H](CO)NC(=O)[C@H](C(C)C)NC(=O)[C@H](CC2CCCCC2)NC(=O)[C@H](CCN)NC(=O)[C@@H](CC(C)C)NC(=O)[C@H](C)N(C)C(=O)[C@H](C(C)C)NC(=O)[C@H](Cc2ccc(-c3ccccc3)cc2)NC1=O` [Example 2146] ({CH2CO}-Y(Carboxymethyl)HDWL[Bip]V[NMeA][dL][Dab][Cha]VSC[Orn][AEEA][Aun]-OH; thioether N-14) was run?
Answer: 7.90

Question: `CC(C)C[C@@H]1NC(=O)[C@H](Cc2c[nH]c3ccccc23)NC(=O)[C@H](CC(=O)O)NC(=O)[C@H](Cc2ccc(O)cc2)NC(=O)[C@H](Cc2ccncc2)NC(=O)CSC[C@@H](C(=O)N[C@@H](CCCN)C(=O)NCCOCCOCC(=O)NCCCCCCCCCCC(=O)O)NC(=O)[C@H](CO)NC(=O)[C@H](C(C)C)NC(=O)[C@H](CC2CCCCC2)NC(=O)[C@H](CCN)NC(=O)[C@@H](CC(C)C)NC(=O)[C@H](C)N(C)C(=O)[C@H](C(C)C)NC(=O)[C@H](Cc2ccc(-c3ccccc3)cc2)NC1=O` [Example 2147] ({CH2CO}-[4Pal]YDWL[Bip]V[NMeA][dL][Dab][Cha]VSC[Orn][AEEA][Aun]-OH; thioether N-14) was tested. Which pIC50 did it give?
Answer: 7.98

Question: With `CC(C)C[C@@H]1NC(=O)[C@H](Cc2c[nH]c3ccccc23)NC(=O)[C@H](CC(=O)O)NC(=O)[C@H](Cc2ccc(O)cc2)NC(=O)[C@H](Cc2ccccc2)NC(=O)CSC[C@@H](C(=O)N[C@@H](CCCN)C(=O)NCCOCCOCC(=O)NCCCCCCCCCCC(=O)O)NC(=O)[C@H](CO)NC(=O)[C@H](C(C)C)NC(=O)[C@H](CC2CCCCC2)NC(=O)[C@H](CCN)NC(=O)[C@@H](CC(C)C)NC(=O)[C@H](C)N(C)C(=O)[C@H](C(C)C)NC(=O)[C@H](Cc2ccc(-c3ccccc3)cc2)NC1=O` [Example 2148] ({CH2CO}-FYDWL[Bip]V[NMeA][dL][Dab][Cha]VSC[Orn][AEEA][Aun]-OH; thioether N-14) as the molecule, how does the pIC50 read?
Answer: 7.27
